Results: publication PMC3578829, “A Small Molecule (Pluripotin) as a Tool for Studying Cancer Stem Cell Biology: Proof of Concept” (PLoS ONE, 2013)
“And” between values parts separate entries of the source, which are not always exact repeats. Equal values may be shown once.

What was measured:
[1] = tested on: HT29; experiment: Limiting dilution tumorigenicity, s.c. xenograft without protein support; format: in vivo, NOD.SCID mice; parameters: key to Tumorigenicity: Y indicates increased tumor formation or increased time to appearance or both.; Y ^%: Y indicates increased tumor formation when Matrigel was co-injected
Protocol: (§1) Five day exposures were conducted.
(§2) Six week old female NOD.SCID mice were randomly assigned to each of 20 treatment arms (n = 5/group). Treated and control colon tumor lines were enzymatically harvested and counted prior to dilution in RPMI 1640 (at 10, 100, 1,000, 10,000 cells/inoculum) for subcutaneous injection into the axillary region using a volume of […]. Positive control groups were established such that tumor formation occurred in all mice in approximately one week thus confirming that all tumor lines studied were tumorigenic. Cell inocula for the positive control groups ranged from 1×10^6 to 2.5×10^6. Cell viability of the cell stocks was assessed by trypan blue exclusion prior to dilution for injection and was routinely found to be >95%. Tumor formation was monitored weekly using caliper measurements and the tumor mass was calculated as weight in mg = 1/2×(tumor length)×(tumor width)^2. All experiments were terminated at 120 days or when tumor weight exceeded 2000 mg for any individual mouse. In selected studies, tumor cells were resuspended in Matrigel (50% concentration, BD Biosciences) prior to injection.

[2] = tested on: COLO 205; experiment: as above; format: in vivo, NOD.SCID mice; parameters: key to Tumorigenicity: Y indicates increased tumor formation or increased time to appearance or both.; Y ^%: Y indicates increased tumor formation when Matrigel was co-injected
Protocol: as §1, §2

[3] = tested on: HCT-116; experiment: as above; format: in vivo, NOD.SCID mice; parameters: key to Tumorigenicity: Y indicates increased tumor formation or increased time to appearance or both.; Y ^%: Y indicates increased tumor formation when Matrigel was co-injected
Protocol: as §1, §2

[4] = tested on: HCC-2998; experiment: as above; format: in vivo, NOD.SCID mice; parameters: key to Tumorigenicity: Y indicates increased tumor formation or increased time to appearance or both.; Y ^%: Y indicates increased tumor formation when Matrigel was co-injected
Protocol: as §1, §2

[5] = tested on: SW-620; experiment: as above; format: in vivo, NOD.SCID mice; parameters: key to Tumorigenicity: Y indicates increased tumor formation or increased time to appearance or both.; Y ^%: Y indicates increased tumor formation when Matrigel was co-injected
Protocol: as §1, §2

[6] = target: Aurora kinase B (Homo sapiens, UniProt Q96GD4); experiment: In vitro kinase inhibition assay (same assay as RSK2); format: biochemical
Protocol: (§3) RSK2 (90 kD ribosomal S6 kinase), a kinase with both a N- and C-terminal functional domains, phosphorylates multiple targets and is phosphorylated by ERK1/2, another SC-1 target. As a downstream effector, RSK2 signals many cellular behaviors including cell survival, growth, proliferation, and migration. […] Potential inhibitory activity of SC-1 on a random selection of other protein kinases (Aurora kinase B, CHK1, and CHK2) was also evaluated in the same assay and no effect was found (Figure 4A). To determine if activity of related (to RSK2) protein kinases in the AGC kinase family was inhibited by SC-1, further studies were conducted (Table 3). […] Because SC-1 inhibited these selected kinases in the micromolar range and the kinase assay is distinct from the one reporting data in Figure 4A, the positive EC50 value for Abl1 kinase was reported in Table 3 as well. These findings were consistent with predictions reported by Okram et al..
(§4) The RSK2 in vitro kinase inhibition assay utilized was a modification of protocols established by Nguyen et al.. Additional protocols that confirmed the results depicted in Figure 4 and evaluated kinase inhibitory activity in a random selection of protein kinases (Table 3) were conducted at Reaction Biology Corporation (Malvern, PA). This was a miniaturized ^33P-based screening assay.

[7] = target: CHK2 (Homo sapiens, UniProt O96017); experiment: as above; format: biochemical
Protocol: as §3, §4

[8] = target: CHK1 (Homo sapiens, UniProt O14757); experiment: as above; format: biochemical
Protocol: as §3, §4

[9] = tested on: phospho-ERK1/2; parameters: method as in PMID 17088537; conditions: murine embryonic stem cells; 30 minutes of exposure; cited from earlier work
[10] = tested on: OCT4; experiment: Immunoblotting of OCT4 in HT29; format: cell-based; conditions: 0.1 µM SC-1
Protocol: Standard protein electrophoretic techniques were followed using previously published protocols. For these studies, the colon lines were cultured for 5 days with and without treatments, harvested with trypsin (0.25% trypsin 0.5 mM EDTA, Invitrogen), counted and lysed with a whole cell lysis buffer (10 mM Tris, 1.0 mM EDTA, 50 mM NaCl, 0.5% deoxycholate, 0.5% NP-40, 0.5% SDS, 1.0 mM PMSF, and aprotonin and a cocktail of phosphatase and protease inhibitors). The whole cell lysate was heated to 100°C for 10 min and then fractionated (1000 g, 10 min, 4°C). Protein concentrations were measured with the Pierce BCA Protein Assay. Twenty to 40 µg of protein lysate per lane were loaded onto 10% SDS polyacrylamide gels (Ready-Gels, Biorad) with Laemmli buffer. For immunoblotting, the primary antibodies were diluted in Tween/Tris wash buffer (0.1 mM Tris-HCl pH 7.5, 2.5% Tween-20, 150 mM NaCl) and 5% BSA or nonfat dry milk and incubated overnight at 4°C. Visualization of specific bands was accomplished with an alkaline phosphatase-labeled secondary anti-immunoglobulin antibody and the ECF Chemifluorescent reagent (GE Amersham). Pixel intensity of the imaged bands was measured using STORM (GE Amersham) and Image Quant Software. Normalization for loading was accomplished by reprobing with an anti-actin antibody, quantification of pixel intensity and data normalization.

CHK1, sequence (O14757 whole entry, species assumed): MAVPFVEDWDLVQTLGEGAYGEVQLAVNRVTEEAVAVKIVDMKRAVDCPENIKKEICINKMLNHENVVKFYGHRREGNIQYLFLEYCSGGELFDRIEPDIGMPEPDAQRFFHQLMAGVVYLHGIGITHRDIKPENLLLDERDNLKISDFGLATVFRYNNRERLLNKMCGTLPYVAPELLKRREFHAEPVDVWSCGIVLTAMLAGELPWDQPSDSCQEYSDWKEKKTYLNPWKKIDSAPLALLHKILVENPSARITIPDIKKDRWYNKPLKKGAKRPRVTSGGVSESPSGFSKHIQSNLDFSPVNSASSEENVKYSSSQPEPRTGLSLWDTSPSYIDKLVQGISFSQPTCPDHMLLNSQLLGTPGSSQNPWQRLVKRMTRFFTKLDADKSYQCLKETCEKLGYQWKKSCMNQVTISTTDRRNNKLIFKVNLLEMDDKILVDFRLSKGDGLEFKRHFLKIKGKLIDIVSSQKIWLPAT
Aurora kinase B, sequence (Q96GD4 whole entry, species assumed, the tested form may be a part): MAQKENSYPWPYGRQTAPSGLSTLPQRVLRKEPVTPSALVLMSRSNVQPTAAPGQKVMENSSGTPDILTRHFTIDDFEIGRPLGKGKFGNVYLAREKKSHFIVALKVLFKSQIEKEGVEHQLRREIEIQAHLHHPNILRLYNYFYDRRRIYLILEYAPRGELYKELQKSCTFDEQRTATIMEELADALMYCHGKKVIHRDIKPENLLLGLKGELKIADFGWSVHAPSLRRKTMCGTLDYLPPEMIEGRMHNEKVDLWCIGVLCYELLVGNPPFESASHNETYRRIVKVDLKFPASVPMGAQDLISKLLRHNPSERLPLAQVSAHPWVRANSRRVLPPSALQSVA
CHK2, sequence (O96017 whole entry, species assumed): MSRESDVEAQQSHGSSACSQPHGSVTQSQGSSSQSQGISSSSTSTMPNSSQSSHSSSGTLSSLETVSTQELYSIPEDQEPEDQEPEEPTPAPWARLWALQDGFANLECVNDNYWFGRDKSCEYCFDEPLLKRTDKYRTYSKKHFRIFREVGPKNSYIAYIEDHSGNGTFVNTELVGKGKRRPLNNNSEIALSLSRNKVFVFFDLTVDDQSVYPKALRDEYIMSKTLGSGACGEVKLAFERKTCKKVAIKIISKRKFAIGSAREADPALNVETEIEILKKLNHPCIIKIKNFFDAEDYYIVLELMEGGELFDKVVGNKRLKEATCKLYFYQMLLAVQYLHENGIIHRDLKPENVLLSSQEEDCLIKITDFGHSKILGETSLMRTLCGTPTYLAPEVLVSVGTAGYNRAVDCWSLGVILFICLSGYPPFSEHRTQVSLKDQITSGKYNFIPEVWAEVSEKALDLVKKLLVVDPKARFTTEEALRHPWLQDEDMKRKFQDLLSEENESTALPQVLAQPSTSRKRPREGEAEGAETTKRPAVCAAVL

Cc1cc(Nc2ncc3c(n2)N(C)C(=O)N(c2cc(NC(=O)c4cccc(C(F)(F)F)c4)ccc2C)C3)n(C)n1 [SC-1]
Tumorigenicity ([1]; HT29, summary of SC-1 effects): Y | Tumor take rate ([1]; HT29 treated 5 days with 0.1 µM SC-1, 100 cells inoculated s.c.): 2 of 5 and 2/5 | Tumor take rate ([1]; HT29 treated 5 days with 0.1 µM SC-1, 1000 cells inoculated s.c.): 3/5@ | Tumor take rate ([1]; HT29 treated 5 days with 0.1 µM SC-1, 10000 cells inoculated s.c.): 5/5 | Calculated Time to 1000 mg Tumor Volume ([1]; HT29 treated 5 days with 0.1 µM SC-1, 10,000 cells/inoculum, extrapolated from fitted line): 32 days | Tumorigenicity ([2]; COLO 205, summary of SC-1 effects): Y | Tumor take rate ([2]; COLO 205 treated 5 days with 0.1 µM SC-1, 100 cells inoculated s.c.): 0/5 | Tumor take rate ([2]; COLO 205 treated 5 days with 0.1 µM SC-1, 1000 cells inoculated s.c.): 1/5 | Tumor take rate ([2]; COLO 205 treated 5 days with 0.1 µM SC-1, 10000 cells inoculated s.c.): 4 of 5 and 4/5 | Calculated Time to 1000 mg Tumor Volume ([2]; COLO 205 treated 5 days with 0.1 µM SC-1, 10,000 cells/inoculum, extrapolated from fitted line): 101 days | Tumorigenicity ([3]; HCT-116, summary of SC-1 effects): Y | Tumor take rate ([3]; HCT-116 treated 5 days with 0.1 µM SC-1, 100 cells inoculated s.c.): 0/5 | Tumor take rate ([3]; HCT-116 treated 5 days with 0.1 µM SC-1, 1000 cells inoculated s.c.): 2/5 | Tumor take rate ([3]; HCT-116 treated 5 days with 0.1 µM SC-1, 10000 cells inoculated s.c.): 5/5 | Calculated Time to 1000 mg Tumor Volume ([3]; HCT-116 treated 5 days with 0.1 µM SC-1, 10,000 cells/inoculum, extrapolated from fitted line): 45 days | Tumorigenicity ([4]; HCC-2998, summary of SC-1 effects): Y | Tumor take rate ([4]; HCC-2998 treated 5 days with 0.1 µM SC-1, 100 cells inoculated s.c.): 0/5 | Tumor take rate ([4]; HCC-2998 treated 5 days with 0.1 µM SC-1, 1000 cells inoculated s.c.): 0/5 | Tumor take rate ([4]; HCC-2998 treated 5 days with 0.1 µM SC-1, 10000 cells inoculated s.c.): 2/5 | Calculated Time to 1000 mg Tumor Volume ([4]; HCC-2998 treated 5 days with 0.1 µM SC-1, 10,000 cells/inoculum, extrapolated from fitted line): 139 days | Tumorigenicity ([5]; SW-620, summary of SC-1 effects): Y | Tumor take rate ([5]; SW-620 treated 5 days with 0.1 µM SC-1, 100 cells inoculated s.c.): 0/5 | Tumor take rate ([5]; SW-620 treated 5 days with 0.1 µM SC-1, 1000 cells inoculated s.c.): 0/5 | Tumor take rate ([5]; SW-620 treated 5 days with 0.1 µM SC-1, 10000 cells inoculated s.c.): 2/5 | Calculated Time to 1000 mg Tumor Volume ([5]; SW-620 treated 5 days with 0.1 µM SC-1, 10,000 cells/inoculum, extrapolated from fitted line): 98 days | Inhibitory activity on kinase [6]: no effect | Inhibitory activity on kinase [7]: no effect | Inhibitory activity on kinase [8]: no effect | phospho-ERK1/2 protein levels [9]: inhibited | OCT4 protein expression [10]: increased
